Source: patent US12215363B2, “Balanced indels” (Keygene N.V., priority 2017, dated 2025)

B1: KG10240: cassette (SEQ ID NO. 28) expressing all sgRNAs of KG10177, KG10190 and KG10191 separated by tRNA sequences (nucleic acid)
DNA: GGAGTGATCAAAAGTCCCACATCGATCAGGTGATATATAGCAGCTTAGTTTATATAATGATAGAGTCGACATAGCGATTGAACAAAGCACCAGTGGTCTAGTGGTAGAATAGTACCCTGCCACGGTACAGACCCGGGTTCGATTCCCGGCTGGTGCACAAGTGCCGAGGAGGATGATGTTTTAGAGCTAGAAATAGCAAGTTAAAATAAGGCTAGTCCGTTATCAACTTGAAAAAGTGGCACCGAGTCGGTGCAACAAAGCACCAGTGGTCTAGTGGTAGAATAGTACCCTGCCACGGTACAGACCCGGGTTCGATTCCCGGCTGGTGCACATCCTCCTCGGCACTTGACGTTTTAGAGCTAGAAATAGCAAGTTAAAATAAGGCTAGTCCGTTATCAACTTGAAAAAGTGGCACCGAGTCGGTGCAACAAAGCACCAGTGGTCTAGTGGTAGAATAGTACCCTGCCACGGTACAGACCCGGGTTCGATTCCCGGCTGGTGCATTACCGGTCAAGTGCCGAGGGTTTTAGAGCTAGAAATAGCAAGTTAAAATAAGGCTAGTCCGTTATCAACTTGAAAAAGTGGCACCGAGTCGGTGCTTTTTTTCTAGACCCAGCTTTCTTGTACAAAGTTGGCATTACGCT
modifications: KG10240

Key:
tomato protoplasts = test: Recovery of chlorsulfuron resistant calli after transfection of tomato protoplasts; assay type: cell-based, Solanum lycopersicon var Moneyberg; settings: ALS1/ALS2 alleles sequenced from chlorsulfuron resistant calli versus alleles seen only in protoplast sequence data
Experimental: (§1) For the protoplast transfections 10 μg of KG9387 and 20 μg of one of the sgRNA expressing plasmids (KG10177, KG10190, KG10191, KG10240) mixed with 500 μL (500000 protoplasts) of the protoplast suspension and 500 μL of PEG solution (400 g/l poly(ethylene glycol) 4000, Sigma-Aldrich #81240; 0.1M Ca(NO3)2) was then added and the transfection was allowed to take place for 20 minutes at room temperature. Control samples were also produced by omitting one or both of the plasmids from the transfection. Then, 10 mL of 0.275 M Ca(NO3)2 solution was added and thoroughly, but gently mixed in. The protoplasts were harvested by centrifugation for 5 minutes at 800 rpm and resuspended in 9M culture medium at a density of 0.5×10^6 per ml and transferred to a 4 cm diameter petri dish and an equal volume of 2% alginate solution (20 g/l Alginate-Na (Sigma-Aldrich #A0682), 0.14 g/l CaCl2.2H2O, 90 g/l mannitol) was added. […]
(§2) Total genomic DNA was isolated from tomato protoplasts (48 hrs post transfection) using the DNeasy Plant Mini Kit (Qiagen). […] After sequencing the reads derived from each sample were processed to identify the number and types of sequence changes present at the target site. […]

[1] = test system: ALS1/ALS2 target sequence; test: Indel formation at the ALS1/ALS2 target sites in transfected tomato protoplasts (amplicon sequencing, MiSeq); assay type: cell-based, Solanum lycopersicon var Moneyberg; settings: genomic DNA 48 hours after transfection
Experimental: as §1, §2

Molecule	Chlorsulfuron resistance phenotype of the altered ALS allele (in words) (tomato protoplasts)	Sequence reads with indels at ALS1 and ALS2 target sites (in words) [1]
GQVPGGLMIGT: ALS amino acid change from other pairs of indels in the sequence data, not recovered in resistant calli	not resistance alleles	–
GRRGGLIGT: ALS amino acid change from other pairs of indels in the sequence data, not recovered in resistant calli	not resistance alleles	–
B1	–	resulted in reads that contained more than one indel
